Here are results for one molecule from US12605360B2, “Compositions and methods using xanthan gum to stabilize at least one urolithin in an aqueous matrix” (SOCIETE DES PRODUITS NESTLE S.A., priority 2020, dated 2026).

SMILES strings stand for the structures.

The nature of data set [1]: Solubility of Urolithin A. Type of data set: physicochemical. The text has this: The present disclosure addresses the inventors' recognition that Urolithin A (UA) is insoluble in water, such that a powder containing UA as the main functional ingredient presented the challenge of keeping UA in suspension upon reconstitution of the powder with water. In this regard, UA being insoluble promotes settling of UA at the bottom of the reconstitution container almost immediately. The present disclosure includes various ways of stabilizing Urolithin A in an aqueous matrix, such that when a powder containing UA is reconstituted, the UA remains in suspension.
Comparative experimental data was generated to investigate the possibility of stabilization of UA in an aqueous matrix.

Data set [2] can be described thus: Suspension of Urolithin A upon reconstitution of powder in water. It counts as physicochemical. As to the method:
• 1. Initially the base selected was brown rice syrup powder to which UA was added. […] UA forms a suspension in oil, so another experiment used brown rice syrup powder with canola oil powder and whey protein.
Specifically, different gums and concentrations of gums were investigated with UA and a filler that was brown rice syrup powder: • 1. Guar gum • 2. PHGG • 3. Combination of guar and xanthan • 4. Acacia gum • 5. Gellan gum • 6. FMC Gum blend • 7. Xanthan gum
Table 1 (below) sets forth the formulations of the samples testing various gums with UA. FIGS. 3A and 3B set forth the results from these samples.
Some embodiments of the compositions disclosed herein include fruit flavor and thus citric acid. […] Table 2 (below) sets forth the formulations of the samples testing various gums with UA and citric acid. FIGS. 4A and 4B sets forth the results from these samples.
For each sample, after mixing the powder with water, five minutes elapsed, then the suspension was mixed again, and then viscosity was measured. Out of the various experiments, xanthan gum provided the best solution of not only keeping UA in suspension but also the desired viscosity, easily dissolved, and no off taste/odor to the product.
A range of xanthan gum amounts were then studied (Table 3 and FIG. 5). […]

`O=c1oc2cc(O)ccc2c2ccc(O)cc12` [Urolithin A]: the solubility in oil result in data set [1] (oil) is on record as “sparingly soluble”. The solubility in water result in data set [1] (water) is “insoluble”. Moreover, in data set [2], the “suspension of UA in an oil matrix” value is reported as “forms a good suspension”.
